In ChEMBL document CHEMBL3407492, “BMS-871: a novel orally active pan-Notch inhibitor as an anticancer agent” (Bioorg Med Chem Lett, 2015):

Columns and labels:
[1] = system: TALL-1; experiment: Anticancer activity against human TALL-1 cells assessed as cell number by coulter channelyzer; assay type: functional, cell-based
[2] = Metabolic stability in mouse liver microsomes assessed as fraction of 0.5 uM parent compound remaining after 10 mins; assay type: ADME; conditions: read-out: Stability
[3] = Metabolic stability in human liver microsomes assessed as fraction of 0.5 uM parent compound remaining after 10 mins; assay type: ADME; conditions: read-out: Stability
[4] = system: MDA-MB-157; experiment: In vivo antitumor activity against human MDA-MB-157 cells xenograft model assessed as tumor growth inhibition at 15 mg/kg, po qd for 10 days on - 2 days off - 5 days on; assay type: functional; conditions: read-out: TGI
[5] = system: MDA-MB-157; experiment: In vivo antitumor activity against human MDA-MB-157 cells xenograft model assessed as tumor growth inhibition at 30 mg/kg, po qd for 10 days on - 2 days off - 5 days on; assay type: functional; conditions: read-out: TGI
[6] = system: TALL-1; experiment: In vivo antitumor activity against human TALL-1 cells xenograft model assessed as tumor growth inhibition at 6 mg/kg, po qd for 10 days on - 2 days off - 5 days on; assay type: functional; conditions: read-out: TGI
[7] = system: MDA-MB-157; experiment: In vivo antitumor activity against human MDA-MB-157 cells xenograft model assessed as tumor growth inhibition at 7.5 mg/kg, po qd for 10 days on - 2 days off - 5 days on; assay type: functional; conditions: read-out: TGI
[8] = system: TALL-1; experiment: In vivo antitumor activity against human TALL-1 cells xenograft model assessed as tumor growth inhibition at 24 mg/kg, po qd for 10 days on - 2 days off - 5 days on; assay type: functional; conditions: read-out: TGI
[9] = system: TALL-1; experiment: In vivo antitumor activity against human TALL-1 cells xenograft model assessed as tumor growth inhibition treated po qd for 10 days on - 2 days off - 5 days on; assay type: functional, organism-based

Row | Structure (SMILES) | IC50 [1] [nM] | remaining at 10 min, 0.5 µM [2] [%] | remaining at 10 min, 0.5 µM [3] [%] | other results
1 | CCC(CC)[C@H](C(N)=O)[C@@H](CC(C)C)C(=O)N[C@H]1N=C(c2ccccc2)c2ccccc2N(C)C1=O | 3 | 2 | 2 | 
2 | CN1C(=O)[C@@H](NC(=O)[C@H](CCC(F)(F)F)[C@@H](C(N)=O)c2ccc(F)cc2)N=C(c2ccccc2)c2ccccc21 | 5 | 65 | 95 | 
3 | CCC[C@H](C(N)=O)[C@@H](CC(F)(F)F)C(=O)N[C@H]1N=C(c2ccccc2)c2ccccc2N(C)C1=O | 158 | 51 | 45 | 
4 | CN1C(=O)[C@@H](NC(=O)[C@H](CCC(F)(F)F)[C@@H](C(N)=O)c2cc(F)cc(F)c2)N=C(c2ccccc2)c2ccccc21 | 4 | 21 | 94 | 
5 | NC(=O)[C@@H](c1ncon1)[C@@H](CCC(F)(F)F)C(=O)N[C@H]1N=C(c2ccccc2)c2ccccc2NC1=O |  | 83 | 84 | 
6 | CN1C(=O)[C@@H](NC(=O)[C@H](CCC(F)(F)F)[C@@H](C(N)=O)c2ccc(F)cc2F)N=C(c2ccccc2)c2ccccc21 | 4 | 31 | 100 | 
7 | NC(=O)[C@@H](c1cocn1)[C@@H](CCC(F)(F)F)C(=O)N[C@H]1N=C(c2ccccc2)c2ccccc2NC1=O |  | 99 | 86 | 
8 | CN1C(=O)[C@@H](NC(=O)[C@H](CCC(F)(F)F)[C@@H](C(N)=O)c2cccc(OC(F)(F)F)c2)N=C(c2ccccc2)c2ccccc21 | 26 | 82 | 100 | 
9 | CN1C(=O)[C@@H](NC(=O)[C@H](CCC(F)(F)F)[C@@H](C(N)=O)c2cccc(S(C)(=O)=O)c2)N=C(c2ccccc2)c2ccccc21 |  | 62 | 93 | 
10 | CCC(CC)[C@H](C(N)=O)[C@@H](CC(C)(C)C)C(=O)N[C@H]1N=C(c2ccccc2)c2ccccc2N(C)C1=O |  | 6 | 1 | 
11 | Cc1cc([C@H](C(N)=O)[C@@H](CCC(F)(F)F)C(=O)N[C@H]2N=C(c3ccccc3)c3ccccc3N(C)C2=O)no1 |  | 10 | 94 | 
12 | Cc1nocc1[C@H](C(N)=O)[C@@H](CCC(F)(F)F)C(=O)N[C@H]1N=C(c2ccccc2)c2ccccc2N(C)C1=O |  | 23 | 78 | 
13 | COc1ccc([C@H](C(N)=O)[C@@H](CCC(F)(F)F)C(=O)N[C@H]2N=C(c3ccccc3)c3ccccc3N(C)C2=O)cc1 | 4 | 5 | 62 | 
14 | CN1C(=O)[C@@H](NC(=O)[C@H](CCC(F)(F)F)[C@@H](C(N)=O)c2cccc(C(F)(F)F)c2)N=C(c2ccccc2)c2ccccc21 | 13 | 59 | 92 | 
15 | CN1C(=O)[C@@H](NC(=O)[C@H](CCC(F)(F)F)[C@@H](C(N)=O)c2ccccc2)N=C(c2ccccc2)c2ccccc21 | 4 | 74 | 95 | inhibition in vivo at 15 mg/kg [4]: 76%; inhibition in vivo at 30 mg/kg [5]: 99%; inhibition in vivo at 6 mg/kg [6]: 71%; inhibition in vivo at 7.5 mg/kg [7]: 63%; inhibition in vivo at 24 mg/kg [8]: 102%; inhibition [9]: Dose-dependent effect
16 | Cc1cccc([C@H](C(N)=O)[C@@H](CCC(F)(F)F)C(=O)N[C@H]2N=C(c3ccccc3)c3ccccc3N(C)C2=O)c1 | 15 | 7 | 23 | 
17 | Cc1nc([C@H](C(N)=O)[C@@H](CCC(F)(F)F)C(=O)N[C@H]2N=C(c3ccccc3)c3ccccc3N(C)C2=O)no1 |  | 24 | 100 | 
18 | CCC(CC)[C@H](C(N)=O)[C@@H](CCC(F)(F)F)C(=O)N[C@H]1N=C(c2ccccc2)c2ccccc2N(C)C1=O |  | 7 | 5 | 
19 | NC(=O)[C@@H](c1cnoc1)[C@@H](CCC(F)(F)F)C(=O)N[C@H]1N=C(c2ccccc2)c2ccccc2NC1=O |  | 100 | 96 | 
20 | CN1C(=O)[C@@H](NC(=O)[C@H](CCC(F)(F)F)[C@@H](C(N)=O)c2ccc(F)c(F)c2)N=C(c2ccccc2)c2ccccc21 | 4 | 29 | 94 | 
